Experimental data taken from patent US6420174B1, “Method of producing organogenetic tissue from a plant of the genus Mentha” (Council of Scientific and Industrial Research, priority 2000, dated 2002).

Assays:
regenerated shoots = test: Characteristics and growth of regenerated shoots (leaf dimensions); type: cell-based, Mentha arvensis; details: medium containing 80 μg ml^−1 of menthol
Method: (§1) In the next phase, the callus was sub cultured in three different media: i) the basal medium MSO containing only the vitamins and minerals without any growth hormones; ii) MSA-2 medium which is MSO with 0.2 μg ml^−1 concentration of NAA and 5 μg ml^−1 of a cytokinin BAP; and iii) MT-80 medium which is MSO with only 80 μg ml^−1 menthol. On each kind of these media, an independent callus (50 mg ) or 5 independently regenerated shoots were inoculated per flask in 5 replications each. The experiment was conducted in the completely randomized design (CRD) fashion. Cultures were incubated and maintained at 25±2° C. and 400-600 lux light intensity with 16-hour photoperiod. The response was recorded every 24 hours over a period of one week and then weekly upto one month.
The leaves were also larger in the shoots regenerated on the medium containing 80 μg ml^−1 of menthol (Table 4).

Root pieces = test: Response of other explants in different media: root pieces; type: cell-based, Mentha arvensis
Method: as §1
(§2) At this stage, the applicants wanted to know whether any other parts of the plant (explants) show similar response as callus and lead to direct regeneration. In the same experimental design we inoculated different parts of the plant in different media and the observations were recorded after 7 and 15 days.

Internodes = test: Response of other explants in different media: internodes; type: cell-based, Mentha arvensis; details: 7 days
Method: as §1, §2

[1] = test system: regenerated shoots of Mentha arvensis; test: Response of regenerated shoots in different media; type: cell-based; details: Mentha arvensis L. cv. Himalaya, 7 days
Source text: (§3) The plant variety used in these experiments was cv. Himalaya (U.S. Pat No. PP10935) of Mentha arvensis L. (2n=96). The suckers of M. arvensis L. cv. Himalaya for multiplication of the plant material and future experimentation were obtained from CIMAP's gene bank. For callus production, the explant material was collected from the field grown plants and surface sterilized by washing sequentially with 2% detergent, distilled water containing a few drops of Savlon (Johnson and Johnson, India), 0 1% acidified mercuric chloride and autoclaved distilled water before inoculation. About 1 cm long internode pieces were inoculated in the Murashige and Skoog medium (Murashige T, Skoog F; 1962. A revised medium for rapid growth and bioassay with tobacco tissue cultures. Physiol Planta, 15:473-497) supplemented with 0.2 μg ml^−1 of an auxin (NAA, 1-napthalene acetic acid) and 5 μg ml^−1 of a cytokinin (BAP, benzyl aminopurine). […]
(§4) In the next phase, the callus was sub cultured in three different media: i) the basal medium MSO containing only the vitamins and minerals without any growth hormones; ii) MSA-2 medium which is MSO with 0.2 μg ml^−1 concentration of NAA and 5 μg ml^−1 of a cytokinin BAP; and iii) MT-80 medium which is MSO with only 80 μg ml^−1 menthol. […] The response was recorded every 24 hours over a period of one week and then weekly upto one month. […]

Mentha arvensis callus = test: Shooting response of callus in different media; type: cell-based, Mentha arvensis L. cv. Himalaya
Source text: as §3, §4

[2] = test system: in vitro raised somaclones (shootlets); test: Earlier screening of in vitro raised somaclones in medium containing toxic concentrations of menthol; type: cell-based, Mentha arvensis; details: above 70 μg ml^−1 in the medium
Method: The applicants earlier developed a protocol for screening high menthol yielding plants by inoculating the in vitro raised somaclones in medium containing toxic concentrations of menthol in the tissue culture medium (Patent pending). In this procedure, screening of 2850 variants yielded 30 clones surviving 70 μg ml^−1 of menthol concentration in the medium out of which only 5 stable clones could be isolated which were of high menthol content type in comparison to the parent variety ‘Himalaya’ (U.S. Pat No. PP 10935). […] At this point, the applicants planned experiments to subject the callus directly to menthol selection instead of the regenerated shoots to save on time, space and labour. The logic was to isolate the tolerant cell lines if any, growing from this callus later.

## CC1CCC(C(C)C)C(O)C1 (stereo not shown) [menthol]
Regenerated shoots
  Growth of menthol-induced shoots compared to shoots growing on other media: more vigorous in growth
Root pieces; MSO + 60 ppm menthol, 7 days
  Response of root pieces: No change
Root pieces; MSO + 70 ppm menthol, 7 days
  Response of root pieces: No change
Root pieces; MSO + 70 ppm menthol, 15 days
  Response of root pieces: Wilting started
Root pieces; MSO + 80 ppm menthol, 7 days
  Response of root pieces: Wilting
Root pieces; MSO + 80 ppm menthol, 15 days
  Response of root pieces: Wilting
Internodes; MSO + 60 ppm menthol
  Response of internodes: Green
Internodes; MSO + 70 ppm menthol
  Response of internodes: Green
Internodes; MSO + 80 ppm menthol
  Response of internodes: Wilting
[1]
  Toxic concentration at which the regenerated shoots die: ≥ 80 µg/mL
Mentha arvensis callus; MSO medium containing menthol 80 μg ml^−1
  Time to visible shoot induction from callus: 7 to 10 days
Mentha arvensis callus; text of Example 2, up to 21 days
  Response of transferred callus pieces: induced shoot regeneration
[2]
  Effect on shootlets of increasing menthol concentration further: killed all the shootlets
